The values below come from patent US6028102A, “Anticonvulsant drugs and pharmaceutical compositions thereof” (priority 1998, dated 2000).

The nature of data set [1]: maximal electroshock (MES) test, ip to mice. Format: in vivo. To be noted: for ED50: Mus musculus. The method, then: (§1) Screening of Anticonvulsant Activity
(§2) Compounds I-XI were screened in carworth farm #1 mice (ip--in a volume of 0.01 mL/g of body weight) and sprague-Dawley rats (po--in a volume of 0.004 mL/g of body weight) for their anticonvulsant activity and neurotoxicity by the NIH epilepsy Branch [Porter et al, 1984]. The screening procedure involved the following:
(§3) 1) the maximal electroshock (MES) test, which measures seizure spread; 2) the subcutaneous pentylenetetrazol test (sc Met test) which measures seizure threshold; and 3) the rotored ataxia test which assesses neurotoxicity.
Anticonvulsant activity and neurotoxicity of N-acetyl, N'-
benzylglycinamide (VII) and N-benzyloxycarbonylglycinamide
(IX) following ip administration to mice in comparison to
phthaloylglycinamide and N-valproylglycinamide^a.
MES Maximal electroshock.
(§4) ED50 - Effective dose in 50% of the test animals.

Data set [2] can be described thus: subcutaneous pentylenetetrazol test (sc Met), ip to mice. It is filed as in vivo. On the procedure: as §1, §2, §3, §4
A short description of data set [3]: rotored ataxia test (neurotoxicity), ip to mice. The settings on record: for TD50: mouse, in vivo, ip. Format: in vivo. On the procedure:
as §1, §2, §3
TD50 - Neurotoxic dose in 50% of the test animals.

The nature of data set [4]: Screening of anticonvulsant activity. The settings on record: for anticonvulsant activity in words: overall finding of the study. Format: in vivo, mice. On the procedure: as §1, §2, §3
Applicants therefore decided to derivatize glycinamide and the above dipeptides by synthesizing their N-acetyl and N'-benzyl derivatives (compounds IV-VIII). […] Therefore, this compound was further analyzed quantitatively and its ED50 data and protective indices in comparison to phthaloyl glycinamide and valproyl glycinamide--TV 1901 [17] are presented in Table 2. As a consequence of their anticonvulsant activity, the pharmacokinetics of compounds VII and IX were investigated following iv administration (400 mg) to six dogs, and the mean plasma levels of compounds VII and IX are presented in FIGS. 1 and 2, respectively.

Data set [5] is described as follows: Pharmacokinetic analysis following iv administration to dogs. It is filed as in vivo. The settings on record: for clearance: CL. The method, then:
The experiments were carried out on six male dogs (mongrels), ranging in weight between 18 and 22 kg. In a randomized cross over design, each dog was injected intravenously (in 1.5 mL of DMSO) with a dose of 400 mg of N-acetyl,N'-benzylglycinamide (VII), 404 mg (on dose equivalent to 400 mg of compound VII) of Z-glycinamide (IX) and 406 mg of Z-glycine (VIII). Urine was collected systematically for 12 hours after dosing, by means of an indwelling catheter.
Venous blood samples (6 mL) were collected via an indwelling catheter (from the cephalic vein) at specified intervals following injection (0, 5, 10, 20, 30, 45 minutes and 1, 1.5, 2, 2.5, 3, 4, 5, 6, 7, 8, 10 and 12 hours respectively). The plasma was then immediately separated by centrifugation at 3000 g for 15 minutes and stored at -20° C. Before each assay, the plasma was allowed to reach room temperature, vortexed, centrifuged and the residual clot removed.
Urine samples were collected via a urine catheter at specified intervals following injection (0, 1, 2, 3, 4, 5, 6, 7, 8, 9, 10 and 12 hours respectively), the samples volume were measured and the urine samples were stored at -20° C. Plasma and urine levels of compounds VII, VIII and IX were then assayed by a HPLC assay described herein below.
HPLC Assay for Monitoring N-acetyl,N'-benzylglycinamide (VII) and N-benzyloxycarbonylglycinamide (IX) in Dog Plasma and Urine
Plasma samples are allowed to reach room temperature, vortexed and centrifuged. The plasma was then assayed as follows:
To 0.5 mL of plasma, 10 μg of an internal standard (N-benzyl-oxycarbonylglycinamide (IX)) and 4 mL of tert-butylmethylether were added. The mixture was vigorously vortexed for 30 seconds, centrifuged for 10 minutes at 3000 g, the organic phase was separated and evaporated to dryness (using a vortex evaporator). To the residue, 80 μl of methanol were added, the mixture was vortexed and 30 μl were injected into the HPLC (Schimadzu SCL-10A with a UV-visible detector model SPD-10A).
Urine samples are allowed to reach room temperature, vortexed and centrifuged. The urine was then assayed as follows:
To 0.25 mL of urine, 10 μg of internal standard (N-benzyl-oxycarbonylglycinamide (IX)), 100 μl of hydrochloric acid solution (1 N) and 4 mL of tert-butylmethylether were added. The mixture was vigorously vortexed for 30 seconds and centrifuged for 10 minutes at 3000 g, the organic phase was separated and transferred to another test tube containing 0.5 mL of sodium hydroxide solution (1N), the mixture was vigorously vortexed for 30 seconds, centrifuged for 10 minutes at 3000 g, the organic phase was separated and evaporated to dryness (using a vortex evaporator). To the residue, 80 μl of methanol were added, the mixture was vortexed and 30 μl were injected into the HPLC.
HPLC conditions: HPLC column; Hypersil ODS (C-18) 5μ, 4.6×150 mm; Wavelength: 258 nm; Mobile phase: 60% water, 40% methanol and 0.01% trifluoroacetic acid.
The same assay was used for monitoring N-benzyloxycarbonyl-glycinamide (IX) in dog plasma and dog urine using N-acetyl,N'-benzylglycinamide as an internal standard.
HPLC Assay for Monitoring Z-glycine (VIII) in Dog Plasma and Urine
To 0.5 mL of plasma, 10 μg of internal standard (Z-GABA), 100 μl of hydrochloric acid solution (1N) and 5 mL of tert-butylmethylether were added. The mixture was vigorously vortexed for 30 seconds, centrifuged for 10 minutes at 3000 g, the organic phase was separated and evaporated to dryness (using a vortex evaporator). To the residue, 100 μl of mobile phase were added, the mixture was vortexed and 30 μl were injected to the HPLC.
Urine samples was allowed to reach room temperature, vortexed and centrifuged. The urine was then assayed as follows:
To 0.1 mL of urine, 30 μg of internal standard (Z-GABA) and 5 mL of tert-butylmethylether were added. The mixture was vigorously vortexed for 30 seconds, centrifuged for 10 minutes at 3000 g, the organic phase was separated off. […]

Data set [6] is described as follows: Blood stability study in dog blood. It is filed as in vitro ADME. The method, then: Blood samples (4 mL) were then collected at the following times: 0, 1, 2, 3, 4, 5 and 6 hours. Plasma was immediately separated and the compounds concentrations in the plasma assayed by HPLC.
Data set [7] can be described thus: Partitioning study, blood-plasma concentration ratio. Format: in vitro ADME. To be noted: dog blood, 25° C., 5-40 mg/L. On the procedure:
The blood-plasma concentration ratio of compounds VII and IX (partitioning study) was carried out at room temperature (25° C.) by spiking known amounts of the compound in six samples of fresh blood taken from a dog prior to drug administration. N-acetyl, N'-benzylglycinamide and Z-glycinamide concentrations were 5, 10, 15, 20, 30 and 40 mg/L. Each blood sample was centrifuged immediately after spiking and the separation of the plasma was carried out according to the procedure described hereinabove. Plasma levels of the two compounds VII and IX were determined by HPLC.

The nature of data set [8]: Blood-brain-barrier crossing after iv injection to rats. Format: in vivo. To be noted: 25 mg. The method, then:
(§5) In two separate experiments cold (unlabeled) Z-glycinamdie and Z-glucine were injected intravenously to male rats. For the experiments, the two compounds were dissolved in 0.2 mL of DMSO and were injected at a dose of 25 mg. Blood samples (8 mL each) were collected from the ascending vena cava of an individual rat at 5, 10, 20, 30, 45, 60, 90, 120, 150, 180, 240, 300, 360 and 480 minutes after administering the drug dose. Three rats were sacrificed for each of the aforementioned time measurements and the plasma or tissue obtained from each rat for each time point was averaged. Plasma was immediately separated by centrifugation at 3000 g for 15 minutes and stored at -20° C. until analyzed. Brain and liver were quickly removed at the same time intervals under light ether anesthesia, the excised tissues were immersed in liquid nitrogen for a few minutes and stored at -70° C. until analyzed. Four rats were kept in metabolic cages and the cumulative urine was collected from each rat for 480 minutes after dosing.

The nature of data set [9]: Metabolism and urinary excretion in rats. It is filed as in vivo. To be noted: iv. The method, then: as §5
In rats […] of the N-benzyloxycarbonylglycinamide (IX) dose administered is metabolized to Z-glycine and excreted in the urine with the remaining 15% excreted as N-benzyloxycarbonylglycinamide (IX).

A short description of data set [10]: Stability in dog plasma. To be noted: 37° C. and 20° C. Format: in vitro ADME.
For data set [11] the following is noted: mice; Kohn et al 1988, 1990, 1991; Conley and Kohn, 1987; cited from earlier work.
The mark [12] stands for this setting: 6 hours at physiological conditions (37° C.).

A word on the ED50: it is the dose that gives a 50% effect, or the effect in half of the subjects. Higher therefore signals a need for a large dose. In general, TD50 refers to the dose at which the toxic effect under study appears in half of the subjects. Low values mean harm at a small dose, high ones harm only at a large dose. What is called half-life is the time in which the quantity being followed falls by half. A lower half-life goes with rapid decline. In general, clearance refers to the volume of plasma or blood freed of the substance per unit of time. High values mean efficient removal, low ones inefficient removal. In general, MRT refers to the average time that molecules of a dose stay in the body. Broadly, the Vd is a proportionality between amount in the body and measured concentration, not a real space.

Entries after “also recorded” stand apart in the source; their conditions may differ.

For `NC(=O)CNC(=O)OCc1ccccc1` [IX, N-benzyloxycarbonylglycinamide], in data set [1], the “PI, MES (Protective index, ratio of TD50 to ED50)” value is given as 5.0 and the 50% effect level (ED50) was put at a dose of 46 mg/kg. Further, in data set [2], the “PI, sc Met (Protective index, ratio of TD50 to ED50)” value was determined as 2.4. In data set [2] (Mus musculus), this molecule registered a 50% effective dose (ED50) of 95 mg/kg. This molecule came in with a TD50 in data set [3] of 230 mg/kg. In data set [4], the “anticonvulsant activity in words” value is “showed anticonvulsant activity in mice; also recorded: active”. Moreover, in [5] (dog, in vivo), the CL stood at 10.7 ± 4.3 L/h, the half-life was 2.3 ± 1.3 h, the hepatic extraction ratio came to 0.02 and the metabolised came out at 80 ± 14%. In addition, the clearance in data set [5] (dog, in vivo) is 183 mL/min. For the same molecule, in [5] (dog, in vivo, MRT), the MRT came to 3.3 ± 1.8 h. The Vd in [5] (dog, in vivo, VSS) amounted to 33 ± 10 L. For the same molecule, the Vd in data set [5] (dog, in vivo, Vss) is 33 ± 10 L. Further, the “pharmacokinetics and elimination in words” value in data set [5] (dogs) is recorded as “mainly metabolized to Z-glycine; also recorded: eliminated from the body mainly by metabolism”. Besides, in [5] (dogs, listed as Z-glycinamide), the “pharmacokinetics and elimination in words” value is “mainly metabolized to the inactive Z-glycine”. Further, the “stability in dog blood” value in data set [6] (setting [12]) is listed as “stable”. In data set [7], the “plasma to blood ratio” value is recorded as 0.95±0.05. Also, the “crossing of the blood-brain-barrier” value in [8] is “crossed the blood-brain-barrier more readily than does Z-glycine”. In [9] (rat, in vivo, 480 min), the “dose metabolized to Z-glycine and excreted in the urine” value is recorded as 75%. Moreover, the site of metabolism result in [9] (rats) is listed as “occurs primarily in the liver”.
`CC(=O)NCC(=O)NCc1ccccc1` [compound VII, N-Acetyl,N'-benzylglycinamide]: in data set [1], the “PI, MES (Protective index, ratio of TD50 to ED50)” value came out at 2.3 and the median effective dose (ED50) is 88 mg/kg. The neurotoxic signs result in data set [3] (at a dose as high as 300 mg/kg) is “did not show neurotoxic signs”. Besides, the TD50 in [3] was over 200 mg/kg. Further, the anticonvulsant activity result in data set [4] (ip administration of 100 mg/kg to mice) is reported as “showed anticonvulsant activity”. Further, in data set [4], the “anticonvulsant activity in words” value is “active”. Moreover, in [5] (dog, in vivo), the CL is 6.8 ± 0.84 L/h, the MRT came out at 3.0 ± 0.6 h, the half-life was 2.1 ± 0.4 h and the hepatic extraction ratio came out at 0.0125. For the same molecule, in [5] (dog, in vivo), the “pharmacokinetics and elimination in words” value is “eliminated from the body mainly by metabolism”; the t1/2 was found to be 2.1 ± 0.5 h; the clearance was 107 mL/min. In [5] (dog, in vivo, MRT), this molecule gave a mean residence time (MRT) of 3.3 ± 0.8 h. The Vd in data set [5] (dog, in vivo, VSS) came out at 21 ± 4 L. Besides, the Vd in data set [5] (dog, in vivo, Vss) came out at 20 ± 4 L. The distribution volume (Vd) in [5] (dog, in vivo, Vβ) came to 19 ± 6 L. Besides, in [6] (20° C.), the “stability in dog blood” value is reported as “unstable”. For the same molecule, the “stability in dog blood” value in [6] (setting [12]) was “unstable”. Further, the “stability in dog plasma” value in [10] was “stable”. The “anticonvulsant activity in MES test” value in data set [11] is given as “active at a higher dose of 300 mg/kg”.
